According to ChEMBL document CHEMBL4052627, “An overview of azoles targeting sterol 14α-demethylase for antileishmanial therapy” (Eur J Med Chem, 2017):
Values after ≈ are worked out from the molar mass of the structure shown.

Assays:
Leishmania major [1] = test: Antileishmanial activity against Leishmania major MHOM/SA/85/JISH118 promastigote forms after 44 hrs by Alamar Blue assay; type: functional; conditions: MHOM/SA/85/JISH118, 44 h
Leishmania major [2] = test: Antileishmanial activity against Leishmania major MHOM/SA/85/JISH118 axenic amastigote forms after 44 to 46 hrs by Alamar Blue assay; type: functional
Leishmania major [3] = test: Antileishmanial activity against Leishmania major MHOM/SA/85/JISH118 promastigote forms after 48 hrs by flow cytometric analysis; type: functional; conditions: MHOM/SA/85/JISH118, 48 h
Leishmania tropica [4] = test: Antileishmanial activity against Leishmania tropica amastigote forms infected in human monocyte-derived macrophage assessed as reduction in parasite infection at 2 ug/ml relative to control; type: functional; parameters: scale not given: the % may be the effect or the level left
Leishmania donovani [5] = test: Antileishmanial activity against Leishmania donovani MHOM/IN/80/Dd8 amastigote forms infected in golden hamster assessed as inhibition in parasite infection in spleen at 50 mg/kg, ip administered for 5 days measured at day 7 post treatment by giemsa-staining based assay relative to control; type: functional; conditions: MHOM/IN/80/Dd8, ip
Leishmania donovani [6] = test: Antileishmanial activity against Leishmania donovani MHOM/IN/80/Dd8 amastigote forms infected in mouse J774A.1 cells assessed as reduction in parasite infection after 72 hrs by luciferase reporter gene assay; type: functional, cell-based; conditions: MHOM/IN/80/Dd8, J774.A1, 72 h
[7] = Selectivity index, ratio of CC50 for mouse J774A.1 cells to IC50 for Leishmania donovani MHOM/IN/80/Dd8 amastigote forms infected in mouse J774A.1 cells; type: toxicity, cell-based; conditions: read-out: Ratio CC50/IC50
Leishmania major [8] = test: (§1) Antileishmanial activity against Leishmania major MHOM/SEN/96/NAN2 stationary phase promastigote forms infected in BALB/c mouse assessed as reduction in parasite burden in spleen at 10 mg/kg, ip qd administered for 5 consecutive days measured after 50 days by May-Grunwald-Giemsa staining-based method relative to control; type: functional; parameters: scale not given: the % may be the effect or the level left
Leishmania mexicana [9] = test: Antileishmanial activity against Leishmania mexicana MHOM/MX/95/NAN1 amastigote forms infected in Balb/c mouse peritoneal macrophages after 48 hrs by May-Grunwald-Giemsa staining-based assay; type: functional; conditions: MHOM/MX/95/NAN1, 48 h
Leishmania major [10] = test: as §1, with “liver” for “spleen”; type: functional; parameters: scale not given: the % may be the effect or the level left
Leishmania mexicana [11] = test: Antileishmanial activity against Leishmania mexicana MHOM/MX/95/NAN1 axenic amastigote forms after 96 hrs by uptiblue-based spectrofluorimetric analysis; type: functional; conditions: MHOM/MX/95/NAN1, 96 h
Leishmania major [12] = test: as §1, with “popliteal node” for “spleen”; type: functional; parameters: scale not given: the % may be the effect or the level left
[13] = Cytotoxicity against mouse J774A.1 cells assessed as reduction in cell viability after 2 mins by trypan blue dye-light microscopic analysis; type: cell-based, J774.A1
Leishmania major [14] = test: Antileishmanial activity against Leishmania major MRHO/IR/75/ER amastigote forms infected in mouse J774A.1 cells after 60 hrs by giemsa-staining based light microscopic analysis; type: functional, cell-based; conditions: J774.A1, 60 h
Leishmania major [15] = test: Antileishmanial activity against Leishmania major MRHO/IR/75/ER promastigote forms after 72 hrs by MTT assay; type: functional
Leishmania braziliensis [16] = test: Antileishmanial activity against Leishmania braziliensis MHOM/BR/75/M2903 promastigotes forms in presence of terbinafine by trypan blue-staining based light microscopy; type: functional
Leishmania chagasi [17] = test: Antileishmanial activity against Leishmania infantum chagasi MHOM/BR/1972/LD promastigote forms infected in golden hamster after 48 hrs by Alamar Blue assay; type: functional
[18] = Cytotoxicity against mouse NCTC-929 cells assessed as reduction in cell viability after 48 hrs by Alamar Blue assay; type: cell-based; conditions: NCTC-929, 48 h
Leishmania chagasi [19] = test: Antileishmanial activity against Leishmania infantum chagasi MHOM/BR/1972/LD amastigote forms infected in BALB/c mouse macrophage after 120 hrs by giemsa-staining based light microscopic analysis; type: functional
Leishmania amazonensis [20] = test: Antileishmanial activity against Leishmania amazonensis LV78 promastigotes forms after 8 days; type: functional; conditions: LV78, 192 h
Leishmania mexicana [21] = test: Leishmanicidal activity against Leishmania mexicana 68 promastigote forms after 18 hrs by indirect microscopic analysis; type: functional; conditions: Leishmania mexicana, 68, 18 h
Leishmania amazonensis [22] = test: Leishmanicidal activity against Leishmania amazonensis JOSEPHA promastigote forms after 18 hrs by indirect microscopic analysis; type: functional
Leishmania mexicana [23] = test: Leishmanicidal activity against Leishmania mexicana 390 promastigote forms after 18 hrs by indirect microscopic analysis; type: functional; conditions: Leishmania mexicana, 390, 18 h
Leishmania donovani [24] = test: Antileishmanial activity against Leishmania donovani […] promastigote forms after 8 days; type: functional; conditions: 192 h
Leishmania major [25] = test: Antileishmanial activity against Leishmania major MHOM/SN/74/Seidman promastigote forms after 8 days; type: functional; conditions: 192 h
Leishmania donovani [26] = test: Leishmanicidal activity against Leishmania donovani 1S MHOM/SD/00/1S-2D promastigote forms after 18 hrs by indirect microscopic analysis; type: functional
Leishmania panamensis [27] = test: Leishmanicidal activity against Leishmania panamensis L334 promastigotes forms after 18 hrs by indirect microscopic analysis; type: functional; conditions: L334, 18 h
Leishmania panamensis [28] = test: Leishmanicidal activity against Leishmania panamensis LS94 promastigote forms after 18 hrs by indirect microscopic analysis; type: functional; conditions: LS94, 18 h
Leishmania major [29] = test: Leishmanicidal activity against Leishmania major KK promastigote forms after 18 hrs by indirect microscopic analysis; type: functional
Leishmania braziliensis [30] = test: Antileishmanial activity against Leishmania (Viannia) braziliensis infected in human assessed as cure rate at 5 to 8 mg/kg/day, po for 4 weeks; type: functional
Leishmania major [31] = test: Antileishmanial activity against Leishmania major infected in human assessed as healing of lesions at 200 mg/day, po administered for 6 weeks (reference value: 34%); type: functional
Leishmania major [32] = test: Antileishmanial activity against Leishmania major LV39 Rho/SU/59/P promastigote forms harboring C14DM null mutant after 48 hrs; type: functional
Leishmania major [33] = test: Antileishmanial activity against wild type Leishmania major LV39 Rho/SU/59/P promastigote forms after 48 hrs; type: functional
Leishmania amazonensis [34] = test: Antileishmanial activity against Leishmania amazonensis LV78 axenic amastigote forms after 8 days; type: functional; conditions: LV78, 192 h
Leishmania mexicana [35] = test: Antileishmanial activity against Leishmania mexicana Walter Reed 227 promastigote forms assessed as reduction in promastigotes sterol biosynthesis at 10 nM after 24 hrs in presence of [2-14C]mevalonate by liquid scintillation spectrometry analysis relative to control; type: functional; parameters: scale not given: the % may be the effect or the level left
Leishmania tropica [36] = test: Antileishmanial activity against Leishmania tropica amastigote forms infected in human monocyte-derived macrophage assessed as reduction in parasite infection at 15 ug/ml relative to control; type: functional; parameters: scale not given: the % may be the effect or the level left

## Cc1ccc(OCCCCn2ccnc2)c(Cl)c1
Leishmania major [1]
  EC50: 0.21 µM
Leishmania major [2]
  EC50: 11.7 µM
Leishmania major [3]
  EC50: 0.34 µM

## Clc1ccc([C@@]2(Cn3ccnc3)OC[C@H](COc3ccc(N4CCNCC4)cc3)O2)c(Cl)c1
Leishmania tropica [4]
  Activity: 85%

## Clc1cccc(CO/N=C2/c3cccc(Cl)c3CCC2Cn2ccnc2)c1 (stereo unspecified)
Leishmania donovani [5]
  inhibition in vivo at 50 mg/kg: 70%
Leishmania donovani [6]
  IC50: 2.32 µM
[7]
  selectivity ratio: 25.6

## CCn1cc(C(c2ccc(Cl)cc2Cl)n2ccnc2)c2cc(Br)ccc21 (stereo unspecified)
Leishmania major [8]
  Activity: 98.9%
Leishmania mexicana [9]
  IC50: < 1 µM
Leishmania major [10]
  Activity: 79%
Leishmania mexicana [11]
  IC50: 4.4 µM
Leishmania major [12]
  Activity: 49.9%

## O/N=C1/c2ccccc2OC(c2ccc(Cl)cc2)C1n1ccnc1 (stereo unspecified)
[13]
  CC50 at 2 min: 355 µM
Leishmania major [14]
  IC50: 0.6 µM

## O/N=C1/c2ccccc2OC(c2cccc(Cl)c2)C1n1ccnc1 (stereo unspecified)
Leishmania major [15]
  IC50: 26.2 µM

## O[C@](Cn1cncn1)(Cn1cnc(/C=C/c2ccc(OCC(F)(F)C(F)F)cc2)n1)c1ccc(F)cc1F
Leishmania braziliensis [16]
  MIC: 0.03 µM

## c1ccc(-c2ccc(C(c3ccccc3)n3ccnc3)cc2)cc1 (stereo unspecified) [BIFONAZOLE]
Leishmania chagasi [17]
  IC50: 8.97 µM
[18]
  IC50: 39.2 to 42.7 µM

## Clc1ccccc1C(c1ccccc1)(c1ccccc1)n1ccnc1 [CLOTRIMAZOLE]
Leishmania chagasi [17]
  IC50: 2.81 µM
[18]
  IC50: 39.2 to 42.7 µM

## Clc1ccc(COC(Cn2ccnc2)c2ccc(Cl)cc2Cl)cc1 (stereo unspecified) [ECONAZOLE]
Leishmania chagasi [17]
  IC50: 5.36 µM
[18]
  IC50: 39.2 to 42.7 µM
Leishmania chagasi [19]
  IC50: 11 µM

## OC(Cn1cncn1)(Cn1cncn1)c1ccc(F)cc1F [FLUCONAZOLE]
Leishmania amazonensis [20]
  IC50: > 163 µM
Leishmania mexicana [21]
  MIC: 104 µM (≈ 32 µg/mL)
Leishmania amazonensis [22]
  MIC: 104 µM (≈ 32 µg/mL)
Leishmania mexicana [23]
  MIC: 104 µM (≈ 32 µg/mL)
Leishmania donovani [24]
  IC50: > 163 µM
Leishmania major [25]
  IC50: > 163 µM
Leishmania donovani [26]
  MIC: 104 µM (≈ 32 µg/mL)
Leishmania panamensis [27]
  MIC: 104 µM (≈ 32 µg/mL)
Leishmania panamensis [28]
  MIC: 104 µM (≈ 32 µg/mL)
Leishmania major [29]
  MIC: 104 µM (≈ 32 µg/mL)
Leishmania braziliensis [30]
  Activity: 75 - 100%
Leishmania major [31]
  Activity: 79%

## CCC(C)n1ncn(-c2ccc(N3CCN(c4ccc(OCC5COC(Cn6cncn6)(c6ccc(Cl)cc6Cl)O5)cc4)CC3)cc2)c1=O (stereo unspecified) [ITRACONAZOLE]
Leishmania major [32]
  IC50: 2 µM
Leishmania major [33]
  IC50: 0.4 µM

## CC(=O)N1CCN(c2ccc(OCC3COC(Cn4ccnc4)(c4ccc(Cl)cc4Cl)O3)cc2)CC1 (stereo unspecified) [KETOCONAZOLE]
Leishmania amazonensis [20]
  IC50: 0.55 to 3.54 µM
Leishmania amazonensis [34]
  IC50: 3.14 µM
Leishmania donovani [24]
  IC50: 0.55 to 3.54 µM
Leishmania major [25]
  IC50: 0.55 to 3.54 µM
Leishmania major [14]
  IC50: 12.8 µg/mL
Leishmania mexicana [35]
  Activity: 50%
Leishmania tropica [36]
  Activity: 85%
Leishmania braziliensis [16]
  MIC: 0.03 µM

## CC[C@@H]([C@H](C)O)n1ncn(-c2ccc(N3CCN(c4ccc(OC[C@@H]5CO[C@@](Cn6cncn6)(c6ccc(F)cc6F)C5)cc4)CC3)cc2)c1=O [POSACONAZOLE]
Leishmania mexicana [21]
  MIC: 11.4 to 22.8 µM (≈ 7.99 to 16 µg/mL)
Leishmania amazonensis [22]
  MIC: 11.4 to 22.8 µM (≈ 7.99 to 16 µg/mL)
Leishmania mexicana [23]
  MIC: 11.4 to 22.8 µM (≈ 7.99 to 16 µg/mL)
Leishmania donovani [26]
  MIC: 11.4 to 22.8 µM (≈ 7.99 to 16 µg/mL)
Leishmania panamensis [27]
  MIC: 11.4 to 22.8 µM (≈ 7.99 to 16 µg/mL)
Leishmania panamensis [28]
  MIC: 11.4 to 22.8 µM (≈ 7.99 to 16 µg/mL)
Leishmania major [29]
  MIC: 11.4 to 22.8 µM (≈ 7.99 to 16 µg/mL)

## C[C@@H](c1ncncc1F)[C@](O)(Cn1cncn1)c1ccc(F)cc1F [VORICONAZOLE]
Leishmania amazonensis [20]
  IC50: 6.1 to 10.4 µM
Leishmania amazonensis [34]
  IC50: 5.84 µM
Leishmania donovani [24]
  IC50: 6.1 to 10.4 µM
Leishmania major [25]
  IC50: 6.1 to 10.4 µM
